Assay results reported in US11629329B2, “Bioink compositions and methods of preparing and using the same” (Wake Forest University Health Sciences, priority 2017, dated 2023).

Legend:
HCT116 = assay: Short term 5-FU drug study on organoids (MTS, live/dead ratio); format: cell-based; details: drug treated organoids vs control
Protocol: Three bioink formulations (“HA-collagen bioink”) were prepared and the viscoelastic behavior as well as cellular behavior within the material was quantified. The HA-collagen bioinks were formulated in three concentrations: 1:2, 1:3, and 1:4 (Heprasil® from Hystem-HP kit: methacrylated collagen type-1 from Advanced Biomatrix). Collagen was prepared as instructed by Advanced Biomatrix at 6 mg/mL and Heprasil® was prepared to 1% w/v with 0.1% photointiator in DiH2O and warmed to 37° C. Bioink formulations underwent rheological, cell viability, and 3D bioprinting testing conducted on the BioBots 1 device. As a comparison, tests were performed using the a Hystem-HP kit (thiolated hyaluronic acid and gelatin) made with 0.1% photointiator in DiH2O. Rheology was performed to determine shear elastic moduli G′ and 3D bioprinting was utilized to test printability of each material. Organoids were formed in 10 μL drops of bioink with […] per organoid, containing BXP3C, HCT116, Lx2, or pfHSC cell lines. Live/dead staining and picrosirus red collagen bundling analysis was performed on Lx2 and pfHSC organoids to assess viability and micro-architecture formation. A short term 5-Fluorouracil (5-FU) drug study was also conducted on HCT116 to show drug efficacy invariance between the Hystem-HP kit and 1:3 formulated bioink. […]

liver organoids [1] = assay: Acetyl-para-aminophenol toxicity and NAC rescue in liver organoids (live/dead, albumin, alpha-GST); format: cell-based, human
Protocol: Drugs were dissolved in HCM media to reach the desired concentrations. […] Viability of the liver organoids was assessed using live/dead assay on day 14; albumin and alpha GST production were quantified from media collected on days 4, 7, 10, and 14, as described above.

liver organoids [2] = assay: Recalled drug study on liver organoids (Cell-Titer Glo viability, live/dead); format: cell-based, human; details: for EC50: Homo sapiens, liver organoids, 48 hours, read-out: half-maximal effective concentration (EC50), analysis of cell death
Protocol: (§1) Cryopreserved primary human hepatocytes were thawed according to manufacturer's protocol and the cells were directly used in experiments. LX2 hepatic stellate cells were trypsinized with 0.05% of trypsin (Hyclone) and counted. Forty thousand human hepatocytes and ten thousand LX2 hepatic stellate cells were suspended in 10 μl of formulation collagen gel (collagen, hyaluronic acid, and fibronectin) or without fibronectin for the formation of liver organoids. The organoids were engineered in an identical method to cell line organoid formation described above, except 24-well plates (Corning) were employed. The wells were filled with 2 mL of HCM media (Triangle Research Labs), which was replenished after collecting media aliquots for further analysis on day 4, 7 and 10 of the experiment. The organoids were cultured for 14 days.
The hepatoxic drugs bromfenac sodium, troglitazone and tienilic acid, recalled by the FDA, were chosen for this study.^12, 32 All the compounds were purchased from Sigma-Aldrich. Drugs were dissolved in DMSO (dimethyl sulfoxide) for stock concentrations of 100 mM. Concentrations of 1 μM, 10 μm, 100 μM, and 1000 μM were used for bromfenac sodium and tienilic acid. Concentrations of 1 μm, 10 μM, and 100 μM were used for troglitazone. The drug study was conducted for 48 hours in a 24 well plate at 37° C. with 5% CO2; each well in the plate containing one liver organoid in a 2 mL of media (control) or media with drug dissolved at the concentrations mentioned above (n≥6). The response of the liver organoids was assessed using Cell-Titer Glo Luminescent Cell Viability assay (Promega) prepared according to manufacturer's protocol. The results were quantified using the Veritas Microplate Luminometer setup according to manufacturer's instructions (Turner Bio Systems, Promega). Each condition was also subjected to live/dead staining (Thermo Fisher). Stained organoids were imaged using macro-confocal microscopy (Leica TCS LSI, Leica Microsystems).

liver organoids [3] = assay: cells; format: cell-based, human; details: 48 hours; for EC50: liver organoids, read-out: half-maximal effective concentration (EC50), analysis of cell death
Protocol: as §1
The environmental toxins glyphosate, mercury chloride, and lead chloride were purchased from Sigma-Aldrich. Drugs were dissolved in diH2O for stock concentrations of 50 mM (glyphosate), 10 mM (mercury chloride), and 20 mM (lead chloride). Concentrations of 1 mM, 5 mM, 10 mM, and 20 mM were used for glyphosate. Concentrations of 10 μM, 20 μM, 50 μM, and 100 μM were used for mercury chloride. Concentrations of 1 mM, 2 mM, 5 mM, and 10 mM were used for lead chloride. The drug study was conducted for 48 hours (n=7) and liver organoids were assessed for viability with ATP assay and live/dead assay as described above.

HepG2 cells = assay: Cancer organoid proliferation and viability in gel formulations, HepG2; format: cell-based, human; details: days 4, 7, 10
Protocol: The cells were trypsinized with 0.05% of trypsin (Hyclone) and counted. […] We chose this cell density for cancer organoid formation based on the results obtained from 3D organoid research performed in our lab.^31 The gel- cell mixture was pipetted in a well of a 48-well plate (Corning, N.Y.) that was pre-coated with 200 μl of polydimethylsiloxane (PDMS; Sylgard 184 elastomer kit, Dow Corning, Midland, Mich.) prepared according to manufacturer's protocol. The organoids were then crosslinked with UV light (Dymax BlueWave 75, Torrington, Conn.) on a high-intensity setting for 3 seconds. The wells were filled with 500 μL of media, which was replenished on day 4 and day 7 of the experiment. The organoids were maintained in culture for 10 days.
Biocompatibility of the different gel formulations was assessed in human cancer cell and liver organoids on days 4, 7, and 10 (n=3) using a standard live/dead cell viability kit (Thermo Fisher, Waltham, Mass.) according to the manufacturer's recommendation. […] Proliferation of cells within the different organoids was evaluated on days 4, 7, and 10 (n=3) by quantification of mitochondrial metabolism with a CellTiter 96® Aqueous One Solution Cell Proliferation Assay kit (Promega, Madison, Wis.) according to the manufacturer's protocol. Absorbance was quantified on a Spectramax M5 plate reader (Molecular Devices, Sunnyvale, Calif.) at 490 nm.

liver organoids [4] = assay: Liver organoids with and without fibronectin (live/dead, albumin, urea); format: cell-based
Protocol: as §1
Cell viability was determined by live/dead assays (Thermo Fisher) on day 7 and 14 using representative images and by quantification of biomarkers from media collected on days 4, 7, 10, and 14 (n=3): Alpha-Glutathione s-transferase (alpha-GST) is secreted by liver cells upon cell death. The secreted levels of alpha-GST by the organoids are quantified using a GST alpha assay kit (GS41, Oxford Biomedical Research; Rochester Hills, Mich.). Absorbance was read on a Spectramax M5 plate reader (Molecular Devices) at 450 nm for alpha-GST.
The secreted levels of albumin and urea of the liver organoids were quantified from media collected on days 4, 7, 10, and 14 (n=3) using a Human Albumin ELISA Kit (Abeam; Boston, Mass. ab108788) and Urea Assay Kit (Abcam, ab83362), respectively. Absorbance was read on a Spectramax M5 plate reader (Molecular Devices) at 450 nm for albumin and at 430 nm for urea.

pfHSCs = assay: Cell adhesion and spreading behavior in bioink organoids with fibronectin; format: cell-based; details: 16 μg per 10 μL construct
Protocol: Immobilization of fibronectin in the bioink was then verified by assessing cell adhesion and spreading behavior with pfHSCs. Fibronectin (16 μg per 10 μL construct) was added to collagen which was used to make organoids using the bioink with pfHSCs (3 million cells/mL). On days 1, 4, 7, and 10, organoids were removed from culture, fixed, and stained with phalloidin and DAPI.

[5] = system: LX2 hepatic stellate cells; assay: Morphology of cells in HA-Collagen bioink with covalently bound laminin or fibronectin; format: cell-based; details: 7 days, phalloidin and DAPI
Protocol: LX2 hepatic stellate cells were cultured within collagen or a HA-Collagen bioink with covalently bound laminin, fibronectin, or both. After 7 days, the constructs were fixed and stained with phalloidin to highlight the actin cytoskeleton of the cells and DAPI for nuclei. What is evident is that modulating laminin versus fibronectin changes the morphology and phenotype of the cells within the constructs. While not wishing to be bound to any particular theory, these changes are likely due to activation of different integrin receptors responsible for binding to collagen, laminin, and fibronectin cell adhesion motifs.

[6] = organoids containing fibronectin vs without

Compound: O=c1[nH]cc(F)c(=O)[nH]1 [5-FU, 5-Fluorouracil]
- metabolism, MTS assay (HCT116): lower metabolism
- ratio of dead cells (HCT116): larger ratio of dead cells

Compound: CC(=O)N[C@@H](CS)C(=O)O [NAC, N-Acetyl-L-cysteine]
- cell viability of liver organoids exposed to high-concentration APAP (liver organoids [1]; 10 mM APAP with 20 mM NAC): markedly improved cell viability
- albumin production (liver organoids [1]; APAP 10 mM co-incubated with NAC 20 mM, day 14): partially rescued albumin production
- alpha-GST production (liver organoids [1]; APAP 10 mM with NAC 20 mM, by day 14): noticeable decrease approaching control levels

Compound: Nc1c(CC(=O)O)cccc1C(=O)c1ccc(Br)cc1 [bromfenac sodium]
- EC50 (liver organoids [2]): 371 µM
- cell death, live/dead analysis (liver organoids [2]; at 1000 μM): near to complete cell death

Compound: O=C(O)CNCP(=O)(O)O [glyphosate]
- EC50 (liver organoids [3]; Homo sapiens): 4100 µM
- cell death, live/dead analysis (liver organoids [3]; at 20 mM): near to complete cell death

Compound: [Cl][Pb][Cl] [lead chloride]
- EC50 (liver organoids [3]): 970 µM

Compound: [Cl][Hg][Cl] [mercury chloride]
- EC50 (liver organoids [3]): 28.2 µM

Compound: O=C(O)COc1ccc(C(=O)c2cccs2)c(Cl)c1Cl [tienilic acid]
- EC50 (liver organoids [2]): 491 µM

Compound: Cc1c(C)c2c(c(C)c1O)CCC(C)(COc1ccc(CC3SC(=O)NC3=O)cc1)O2 (centres unmarked) [troglitazone]
- EC50 (liver organoids [2]): 6.9 µM

Compound: fibronectin
- proliferation of encapsulated cells in the organoids (HepG2 cells): facilitated the proliferation
- production of albumin (liver organoids [4]; [6]): significantly greater
- production of urea (liver organoids [4]; [6]): significantly greater
- cell viability, live/dead analysis (liver organoids [4]; with vs without fibronectin, 14 days): comparable cell viability
- cell elongation behavior earlier than in conditions without fibronectin (pfHSCs): 3 days
- morphology and phenotype of the cells [5]: mesenchymal

Compound: laminin
- morphology and phenotype of the cells [5]: epithelial nature
